Series [1] in a line: Storage stability at rt. In kind it is physicochemical. The conditions noted are these: few weeks at rt.
Series [2] relates to NFκB-mediated expression of XIAP. As to the kind of experiment: Western immunoblot of XIAP expression. Format: cell-based. The conditions noted are these: BXPC3; 5 and 26 at 5 μM; 27 up to 20 μM. Background: A western blot detects proteins with antibodies after separation by electrophoresis.
Series [3] relates to BXPC3 and HupT3 pancreatic cancer cells. Put plainly: Apoptosis by Hoechst staining. The conditions noted are these: 5 (5 μM), 26 (5 μM), 27 (20 μM), 36 h. In kind it is cell-based.
Series [4] concerns GSK-3β activity (phosphorylation of glycogen synthase). Put plainly: Western immunoblot of glycogen synthase phosphorylation in cells. The conditions noted are these: BXPC3, 5 and 26 at 5 μM, 6-36 h, 27 at 5, 10, 20 μM. In kind it is cell-based.
Series [5] deals with pancreatic cancer cells (MiaPaCa-2, BXPC3, HupT3). As to the kind of experiment: Pancreatic cancer cell proliferation. Format: cell-based. The conditions noted are these: for antiproliferative activity in pancreatic cancer cells: MiaPaCa-2, BXPC3, HupT3.
For series [6] the test system is unchanged. The conditions noted are these: BXPC3, HupT3 and MiaPaCa-2; shown earlier; cited from earlier work.

Entries after “also recorded” stand apart in the source; their conditions may differ.

Take `Cn1cc(C2=C(c3coc4cc(O)ccc34)C(=O)NC2=O)c2cc(F)ccc21` [Compound 4, 3-(5-Fluoro-1-methyl-1H-indol-3-yl)-4-(6-hydroxy-benzofuran-3-yl)-pyrrole-2,5-dione]: in series [1], the stability on storage entry is given as “Partially degradated after few weeks at rt”.
On to `COc1cccc2c(C3=C(c4cn(C)c5cc(I)c(F)cc45)C(=O)NC3=O)coc12` [Compound 5, 3-(5-Fluoro-6-iodo-1-methyl-1H-indol-3-yl)-4-(7-methoxy-benzofuran-3-yl)-pyrrole-2,5-dione], for which the “NFκB-mediated expression of XIAP” value in series [2] is listed as “pronounced decrease”. The “apoptosis / survival of pancreatic cancer cells” value (from here on “apoptosis / survival”) in series [3] is recorded as “significant apoptosis”. Moreover, in series [4], the “GSK-3β activity in cells (GS phosphorylation)” value (shortened to “GSK-3β activity in cells”) was “effectively inhibited”. For the same compound, the “antiproliferative activity in pancreatic cancer cells” value (“antiproliferative activity” below) in series [5] is “good antiproliferative activity”. Also, the “concentrations showing significant anticancer activity” value in series [5] (pancreatic cancer cells) was in the range of 1 to 5 µM.
As for `Cn1cc(C2=C(c3coc4ccccc34)C(=O)NC2=O)c2cc(F)c(Cl)cc21` [Compound 6, 3-Benzofuran-3-yl-4-(6-chloro-5-fluoro-1-methyl-1H-indol-3-yl)-pyrrole-2,5-dione], in series [5], the “antiproliferative activity” value is “good antiproliferative activity”.
With `COc1cccc2c(C3=C(c4cn(C)c5cc(Cl)c(F)cc45)C(=O)NC3=O)coc12` [Compound 11, 3-(6-Chloro-5-fluoro-1-methyl-1H-indol-3-yl)-4-(7-methoxy-benzofuran-3-yl)-pyrrole-2,5-dione], in series [5], the “antiproliferative activity” value is on record as “good antiproliferative activity”.
As to `Cn1cc(C2=C(c3coc4ccccc34)C(=O)NC2=O)c2cc(Br)ccc21` [Compound 13], the “antiproliferative activity” value in series [5] was “little or no inhibitory activity”.
With `C#CCOc1ccc2c(C3=C(c4cn(C)c5ccc(Br)cc45)C(=O)NC3=O)coc2c1` [Compound 16, 3-(5-Bromo-1-methyl-1H-indol-3-yl)-4-(6-prop-2-ynyloxy-benzofuran-3-yl)-pyrrole-2,5-dione], the stability on storage entry in series [1] is reported as “Partially degradated after few weeks at rt”.
As to `COc1cccc2c(C3=C(c4cn(C)c5c(Br)cc(Br)cc45)C(=O)NC3=O)coc12` [Compound 20, 3-(5,7-Dibromo-1-methyl-1H-indol-3-yl)-4-(7-methoxy-benzofuran-3-yl)-pyrrole-2,5-dione], the “antiproliferative activity” value in series [5] is given as “good antiproliferative activity”.
Consider `Cn1cc(C2=C(c3coc4ccccc34)C(=O)NC2=O)c2cc(I)ccc21` [Compound 21, 3-Benzofuran-3-yl-4-(5-iodo-1-methyl-1H-indol-3-yl)-pyrrole-2,5-dione], for which the “antiproliferative activity” value in series [5] is on record as “little or no inhibitory activity”.
As to `Cn1cc(C2=C(c3coc4ccc(F)cc34)C(=O)NC2=O)c2cc(I)ccc21` [Compound 22, 3-(5-Fluoro-benzofuran-3-yl)-4-(5-iodo-1-methyl-1H-indol-3-yl)-pyrrole-2,5-dione], the “antiproliferative activity” value in series [5] is “little or no inhibitory activity”.
With `Cn1cc(C2=C(c3coc4ccc(F)cc34)C(=O)NC2=O)c2cc(C#CC3CC3)ccc21` [Compound 25, 3-(5-Cyclopropylethynyl-1-methyl-1H-indol-3-yl)-4-(5-fluoro-benzofuran-3-yl)-pyrrole-2,5-dione], the “antiproliferative activity” value in series [5] was “little or no inhibitory activity”.
`Cn1cc(C2=C(c3coc4ccc(F)cc34)C(=O)NC2=O)c2cc3c(cc21)OCO3` [Compound 26, 3-(5-Fluoro-benzofuran-3-yl)-4-(5-methyl-5H-[1,3]dioxolo[4,5-f]indol-7-yl)-pyrrole-2,5-dione]: the “NFκB-mediated expression of XIAP” value in series [2] was “pronounced decrease”. Besides, the “apoptosis / survival” value in series [3] is given as “significant apoptosis”. In series [4], the “GSK-3β activity in cells” value was “effectively inhibited”. Besides, in series [5], the “antiproliferative activity” value is reported as “good antiproliferative activity”.
Regarding `COc1cc2c(C3=C(c4coc5ccccc45)C(=O)NC3=O)cn(C)c2cc1Cl` [Compound 27, 3-Benzofuran-3-yl-4-(6-chloro-5-methoxy-1-methyl-1H-indol-3-yl)-pyrrole-2,5-dione], the “NFκB-mediated expression of XIAP” value in series [2] is “no such effect”. Moreover, the “apoptosis / survival” value in series [3] is “did not affect”. For the same compound, the “GSK-3β activity in cells” value in series [4] is on record as “did not affect”. The “antiproliferative activity” value in series [5] is reported as “did not affect; also recorded: little or no inhibitory activity”.
Turning to `COCc1cccc2c(C3=C(c4coc5ccccc45)C(=O)NC3=O)cn(C)c12` [Compound 33, 3-Benzofuran-3-yl-4-(7-methoxymethyl-1-methyl-1H-indol-3-yl)-pyrrole-2,5-dione], the “antiproliferative activity” value in series [5] is on record as “little or no inhibitory activity”.
On to `COc1ccc(CNC(=O)Nc2ncc([N+](=O)[O-])s2)cc1` [Compound 77], for which the “pancreatic cancer cell proliferation” value in series [6] was “significant decrease”.
`Cn1cc(C2=C(c3ccc(Cl)cc3Cl)C(=O)NC2=O)c2ccccc21` [Compound 78]: the “pancreatic cancer cell proliferation” value in series [6] is “significant decrease”.
